Results reported in paper PMC6338644 (The FASEB Journal, 2018).

What was measured:
[1] = test system: Immortalized human podocytes; assay: Glucose uptake assay in podocytes; type: cell-based
Procedure: (§1) Immortalized human podocytes were maintained as previously described ([10]). […] Podocytes were lysed as previously described ([21]).
(§2) Glucose uptake assay and On-Cell Western were performed essentially as in Tolvanen et al. ([19]). […] Cells were transferred on ice; incubated with anti-HA IgG in serum-free medium for 15 min, followed by additional incubation in fresh cell differentiation medium for 15 min at +37°C; and fixed with 2% paraformaldehyde for 20 min. Cells were incubated with IRDye 800 donkey anti-mouse IgG and nuclear marker DRAQ-5 (Thermo Fisher Scientific). Detection and quantitation were performed with the Odyssey Infrared Imager (Li-Cor Biosciences, Lincoln, NE, USA).
(§3) L6-GLUT4 myotubes overexpressing SHIP2 were treated and glucose uptake performed as described in C. […] Time point 15 min indicates the amount of HA detected on the cells after 15 min internalization.

[2] = molecular target: T1, His-tagged human SHIP2 phosphatase domain (Homo sapiens, UniProt O15357); assay: Malachite green phosphate assay, recombinant SHIP2 phosphatase domain (High Throughput Biomedicine Unit, 384-well); type: biochemical; details: for inhibition at 100 µM: inhibitors at 100 µM concentration, read-out: SHIP2 Inhibition efficiency; for IC50: purified His-tagged phosphatase domain, 100 µM PI(3,4,5)P3
T1 construct: we produced a His-tagged human SHIP2 phosphatase domain; His; made in house
T1 sequence (O15357 419-732 limits assumed): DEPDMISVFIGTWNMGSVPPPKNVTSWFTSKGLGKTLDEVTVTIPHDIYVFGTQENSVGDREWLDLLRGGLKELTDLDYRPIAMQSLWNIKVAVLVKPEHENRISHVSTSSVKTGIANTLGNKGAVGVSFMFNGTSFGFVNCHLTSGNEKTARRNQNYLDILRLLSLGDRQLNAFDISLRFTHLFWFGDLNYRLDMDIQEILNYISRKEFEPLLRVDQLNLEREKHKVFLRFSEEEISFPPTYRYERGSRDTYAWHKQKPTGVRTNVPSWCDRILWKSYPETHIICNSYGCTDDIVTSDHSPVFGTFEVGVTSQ
Procedure: (§4) Recombinant His-tagged human SHIP2 and SHIP1 phosphatase domains were produced as previously described ([17]). […] Immunocomplexes were bound to protein G-Sepharose beads at +4°C for 2 h and washed 3 times with malachite green phosphate assay buffer {10 mM 4-(2-hydroxyethyl)-1-piperazineethanesulfonic acid (HEPES), pH 7.25, 6 mM MgCl2, 0.1% 3-[(3-cholamidopropyl)dimethylammonio]-1-propanesulfonate (CHAPS), 250 mM sucrose, and 0.25 mM EDTA}.
(§5) The catalytic activities of the recombinant SHIP2 and SHIP1 phosphatase domains were determined by malachite green phosphate assay at the High Throughput Biomedicine Unit (University of Helsinki) using D-myo-PI(3,4,5)P3 (Echelon Biosciences, Salt Lake City, UT, USA). Different volumes, resulting in desired final concentrations of inhibitors, were transferred to the wells of 384-well plates by using the Echo550 acoustic dispenser (Labcyte, San Jose, CA, USA). Recombinant protein (100 ng) in reaction buffer {10 mM HEPES, pH 7.25, 6 mM MgCl2, 0.1% CHAPS, 250 mM sucrose, and 0.25 mM EDTA} was placed in each well (7.5 µl), and the plates were preincubated at room temperature for 15 min. The phosphatase reaction was started by adding PI(3,4,5)P3 diluted in the reaction buffer (7.5 µl) to each well to reach a final concentration of 100 µM PI(3,4,5)P3 in the 15 µl reaction volume. The plates were incubated at room temperature for 20 min, after which, 15 µl BIOMOL green reagent (Biomol, Plymouth Meeting, PA, USA) was added to each well, and then the plates were incubated for another 25 min at room temperature. Absorbance was measured at 620 nm using a Pherastar FS plate reader (BMG Labtech, Offenburg, Germany). For the manual malachite green phosphate assay in 96-well plates [see Fig. 1; and activity measurement of phosphatase and tensin homolog (PTEN; Signalchem, Richmond, BC, Canada)], the reaction volume was increased to 50 µl, and 100 µl Biomol Green Reagent was added. The catalytic activity of SHIP2 immunoprecipitated from cell and tissue lysates was determined as in Saurus et al. ([22]), omitting SHIP2 inhibitors in lysis buffer, immunoprecipitation reaction, wash, and assay buffers. AS1949490 was synthesized, as described in Supplemental Fig. S1A, or purchased from Tocris Bioscience (Bristol, United Kingdom).

[3] = molecular target: T2, His-tagged human SHIP1 phosphatase domain (Homo sapiens, UniProt Q92835); assay: Malachite green phosphate assay, recombinant SHIP1 phosphatase domain (High Throughput Biomedicine Unit); type: biochemical; details: for inhibition at 100 µM: inhibitors at 100 µM concentration, read-out: SHIP1 Inhibition efficiency; for IC50: purified His-tagged phosphatase domain
T2 construct: Recombinant His-tagged human SHIP2 and SHIP1 phosphatase domains were produced as previously described; His; made in house
T2 sequence (Q92835 399-715 limits assumed): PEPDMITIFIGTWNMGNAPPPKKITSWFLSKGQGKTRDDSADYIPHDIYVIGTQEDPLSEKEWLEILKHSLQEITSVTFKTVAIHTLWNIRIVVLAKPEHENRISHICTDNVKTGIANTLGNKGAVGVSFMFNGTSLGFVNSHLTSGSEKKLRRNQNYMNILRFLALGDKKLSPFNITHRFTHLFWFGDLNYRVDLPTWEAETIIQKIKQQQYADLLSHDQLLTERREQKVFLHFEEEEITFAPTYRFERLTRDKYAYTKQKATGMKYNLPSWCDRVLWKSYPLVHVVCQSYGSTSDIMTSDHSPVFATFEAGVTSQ
Procedure: as §4, §5

L6-GLUT4 myotubes = assay: Glucose uptake assay in L6-GLUT4 myotubes; type: cell-based, rat; details: insulin 100 nM, 15 min; serum-starved
Procedure: as §1, §2, §3

[4] = test system: HA-GLUT4-GFP at the plasma membrane of L6-GLUT4 cells; assay: On-Cell Western and HA-GLUT4-GFP endocytosis assay in L6-GLUT4 cells; type: cell-based, rat; details: insulin 100 nM, 15 min
Procedure: as §2
C) Knockdown of SHIP2 reduces metformin-induced glucose uptake. […] L6-GLUT4 myotubes overexpressing SHIP2 were treated and glucose uptake performed as described in C. […] Time point 15 min indicates the amount of HA detected on the cells after 15 min internalization.

db/db mice = details: cited from earlier work

inhibition at 100 µM [2] [%]	IC50 [2] [µM]	inhibition at 100 µM [3] [%]	IC50 [3] [µM]	Compound	other results
44.9	9	29.9	> 50	Nc1nc2nc[nH]c2c(=S)[nH]1 [Thioguanine, 2-Amino-1H-purine-6(7H)-thione]	
76.6	6.2	30	24.6	CC(=O)O[C@]1(C(C)=O)CC[C@H]2[C@@H]3C=C(C)C4=CC(=O)CC[C@]4(C)[C@H]3CC[C@@]21C [Megestrol acetate, 17-(acetyloxy)-6-methylpregna-4,6-diene-3,20-dione]	
52.9	8.8	11.4	21.2	Sc1ncnc2nc[nH]c12 [Mercaptopurine, 3,7-dihydropurine-6-thione]	

Further lines, the compound ahead of its results:

Compound	inhibition at 100 µM [2] [%]	IC50 [2] [µM]	inhibition at 100 µM [3] [%]	IC50 [3] [µM]	other results
NC(=O)c1ncn([C@@H]2O[C@H](CO)[C@@H](O)[C@H]2O)c1N [AICAR, 5-aminoimidazole-4-carboxamide ribonucleoside]					glucose uptake in podocytes ([1]; AICAR 1 mM, 20–24 h, alone): failed to increase; glucose uptake in podocytes, insulin combined with AICAR ([1]; AICAR 1 mM, 20–24 h plus insulin 200 nM, 15 min): failed to increase
Insulin: insulin used to stimulate cells (100 or 200 nM, 15 min)					glucose uptake in podocytes ([1]; insulin 200 nM, 15 min): did not respond; increase in glucose uptake in L6-GLUT4 cells (L6-GLUT4 myotubes): 20%; decrease in amount of HA-GLUT4-GFP on the PM after 15 min uptake (endocytosis) [4]: 20%
O=C(Cc1c(F)cccc1F)Nc1cc(OCc2ccc(Cl)cc2)ccn1 [N-[4-(4-chlorobenzyloxy)pyridin-2-yl]-2-(2,6-difluorophenyl)-acetamide]					PCK1 expression in db/db mice (db/db mice): reduce
